Laboratory results: US10822325B2, “Human GLUT5 specific inhibitors and methods of treatment” (UNM RAINFOREST INNOVATIONS, priority 2015, dated 2020)
Numbering of substitutions follows the chain as printed. “Also recorded” adds a separate entry of the source.

How the values were obtained:
[1] = biological target: T1, human GLUT1 (Homo sapiens, UniProt P11166); experiment: Glucose entrance counter-flow transport in GLUT1 proteoliposomes; assay type: biochemical; conditions: 2 mM compound, one minute
T1 construct: Full length DNA was subcloned into pFastBac1 (Life Technologies) vector with a N-terminal hexahistidine tag; hexahistidine (N); made in house; host or cells: Sf21 insect cells (baculovirus, pFastBac1)
T1 sequence (P11166 1-492): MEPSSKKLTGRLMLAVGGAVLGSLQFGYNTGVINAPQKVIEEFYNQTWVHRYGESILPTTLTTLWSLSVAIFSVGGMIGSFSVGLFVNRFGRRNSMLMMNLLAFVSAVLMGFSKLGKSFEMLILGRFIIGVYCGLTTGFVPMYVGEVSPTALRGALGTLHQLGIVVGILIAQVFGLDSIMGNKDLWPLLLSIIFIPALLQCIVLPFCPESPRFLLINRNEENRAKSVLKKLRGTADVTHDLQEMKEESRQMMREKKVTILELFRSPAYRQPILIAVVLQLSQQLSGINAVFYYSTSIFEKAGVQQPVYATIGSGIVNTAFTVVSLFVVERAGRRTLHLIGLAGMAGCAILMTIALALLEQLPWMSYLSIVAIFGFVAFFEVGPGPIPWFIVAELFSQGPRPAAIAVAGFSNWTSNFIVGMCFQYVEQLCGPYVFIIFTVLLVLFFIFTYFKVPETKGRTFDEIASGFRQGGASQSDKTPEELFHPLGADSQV
Method: (§1) cDNAs of GLUT1, 3, 4 and 5 were purchased from Open Biosystems (GE Healthcare). cDNAs of GLUT2 was a gift from Prof. Graeme Bell at University of Chicago. Full length DNA was subcloned into pFastBac1 (Life Technologies) vector with a N-terminal hexahistidine tag. Bacmids were generated in DH10Bac E. coli cells (Life Technologies). Baculoviruses were produced using Cellfectin II Reagent and amplified in Sf21 insect cells (Life Technologies). Cells were maintained at 26° C., and P1 (10^6 pfu/mL) was collected from infected cells after 72 hours. SF21 cells were propagated in HyClone SFX-Insect media (GE Healthcare), supplemented with 5% fetal bovine serum (Biowest), 4.8 mM glutamine, antibiotics (100 units/mL Penicillin G and 100 μg/mL streptomycin sulfate) and amphotericin B (2.5 μg/mL). […]
(§2) For the entrance counterflow transport in proteoliposomes, the assay was started by the addition of 5 μL proteoliposomes solution (OD600 nm ˜30) to 200 μL, assay solution, containing 10 μM ^14C-radiolabeled glucose (for GLUT1 wild-type or F379H mutant and GLUT2-4) or fructose (for GLUT5 wild-type or H387F mutant and GLUT2) (Moravek Biochemicals) in 100 mM KPi buffer at pH 7.5. After one minute (or different specified time points when the time-dependent counter-flow transport activity was measured), the transport was stopped with ice-chilled quench buffer [0.1 M KPi (pH 5.5) and 0.1 M lithium chloride].

[2] = biological target: T2, GLUT1F379H (Homo sapiens, UniProt P11166, F379H); experiment: Glucose entrance counter-flow transport in GLUT1F379H mutant proteoliposomes; assay type: biochemical; conditions: 2 mM compound
T2 construct: Full length DNA was subcloned into pFastBac1 (Life Technologies) vector with a N-terminal hexahistidine tag; hexahistidine (N); made in house; host or cells: Sf21 insect cells (baculovirus, pFastBac1)
T2 sequence (P11166 1-492 F379H): T1 sequence (P11166 1-492) with F379H
Method: as §1, §2

Structure (SMILES)	effect on GLUT1 glucose transport [1]	effect on GLUT1F379H glucose transport [2]
CS(=O)(=O)c1ccc(Nc2ccc3c(c2)OCO3)c([N+](=O)[O-])c1 [MSNBA, N-[4-(methylsulfonyl)-2-nitrophenyl]-1,3-benzodioxol-5-amine]	did not affect; also recorded: did not influence	remained insensitive; also recorded: remained unaffected
O=C(CCc1ccc(O)cc1)c1c(O)cc(O)cc1O [phloretin, reference compound]	inhibited	no longer inhibited; also recorded: ceased to inhibit
